Measured values from patent US4107307A, “Imidazo [1,5-d]-as-triazine-4(3H)-ones and thiones” (American Cyanamid Company, priority 1977, dated 1978).

How the values were obtained:
[1] = system: Monkey Lung Cyclic AMP Phosphodiesterase; test: Monkey lung cyclic AMP phosphodiesterase inhibition test (B); assay type: biochemical, African green monkeys; details: method: monkey lung PDE, 10^-6 M cyclic AMP, compound usually 1 mM or 0.1 mM, 25° C. 20 min
Procedure: The inhibition of phosphodiesterase is determined by the mouse skin and monkey lung phosphodiesterase (PDE) inhibition tests as follows:
(B) MONKEY LUNG INHIBITION
Preparation of Monkey Lung Cyclic AMP Phosphodiesterase
Lung parenchyma of African green monkeys is homogenized in a Waring blender and centrifuged at 40,000 × gravity for 20 minutes. The supernatant is brought to 70% saturation of ammonium sulfate, centrifuged and the pellet redissolved and dialysed, before aliquoting and storage at -20° C.
Assay of Monkey Lung Phosphodiesterase
Phosphodiesterase is assayed by the method of Thompson and Appleman, ibid. An assay tube contains a 0.4 ml. solution of the following: 45 mM tris-HCl buffer, pH 7.4, […], 0.1 mM dithioerythritol, 10^-6 M cyclic AMP, 0.1 uCi [^3 H]-cyclic AMP, and test compound at the desired concentration (usually 1 mM or 0.1 mM). Compounds not readily soluble in water are dissolved at 40 times the desired concentration in methanol, and diluted 20 times with water. If the compound is not dissolved at this time, it is suspended by sonication before being diluted 1:2 into the assay tube. In this case the activity of the enzyme in the presence of the compound is compared to a solvent control (2.5% methanol), although the solvent alone has negligible effect. The reaction is initiated by addition of enzyme and proceeds at 25° C. for 20 minutes. It is terminated by incubation at 100° C. for 2 minutes. The tubes are cooled to 25° C., 0.8 ug of 5'-nucleotidase (Crotolu adamantus toxin) is added to each and the tubes incubated at 25° C. for 30 minutes. A 1 milliliter suspension of Bio-Rad Labs. AGIX8 (about 0.5 ml. of settled resin) is added, the tubes centrifuged at 900 × gravity for 10 minutes and an aliquot of supernatant removed for scintillation counting. The inhibition by the test compound is calculated as: [formula] where `compound` is the cpm in the presence of compound, `control` is the cpm in the absence of compound, and `blank` is the cpm in the absence of enzyme. […] For this reason, control tubes which contained [^3 H]-AMP instead of [^3 H]-cyclic AMP are run in parallel. A correction of the apparent phosphodiesterase activity is made for the rare compound which inhibited the hydrolysis of AMP.

[2] = system: spontaneous hypertensive rats; test: Anti-hypertensive activity, mean arterial blood pressure of conscious spontaneous hypertensive rats; assay type: in vivo, rat (adult male spontaneous hypertensive); details: second identical dose at 24th hour, vehicle controls 166
Procedure: These compounds have been tested pharmacologically and found to have such properties with a desirable wide spread between doses producing lowered blood pressure and toxic symptoms. In determining this effect of these compounds on hypertension, adult male, 16-20 weeks old, spontaneous hypertensive rats from Taconic Farms, Germantown, N.Y., weighing about 300 grams are used. The rats are dosed by gavage with the test compounds at the indicated dose. All doses of drug were suspended in 2% starch (2 ml./kg.). A second identical dose of the test compound is given at the 24th hour. The mean arterial blood pressure (MAP) of the conscious rats is measured directly by femoral artery puncture at the 28th hour.

[3] = system: Mouse Skin Phosphodiesterase; test: Mouse skin phosphodiesterase (PDE) inhibition test (A); assay type: biochemical, hairless mice; design: key: Active: A compound is considered active if it inhibits more than theophylline, that is, to 50% of control at 1 mM concentration of compound, or to 80% of control of 0.05 mM concentration of compound; details: mouse epidermal PDE, test compound 10 ug./ml., 30° C. 15 min
[4] = Dispersion of aerosol suspension on warming after storage; assay type: physicochemical; details: aerosol in dichlorodifluoromethane with sorbitan trioleate
Procedure: The active ingredient and sorbitan trioleate are placed in a beaker and the dichlorodifluoromethane is added at -40° C. whereupon a suspension is formed. The mixture is sonified, that is, treated with a Sonifier, manufactured by the Branson Sonic Power Co. of Danbury, Conn., as model LS-75 at a current input of 9 amperes for 2 minutes. Additional cold dichlorodifluoromethane is added as necessary to keep the volume at 100 ml. The mixture is uniformly dispersed, and has increased stability resulting from the sonification. Each of six 19 ml. stainless steel containers are filled with 15 ml. of the cold mixture, then valves are inserted and sealed in place.

Monkey Lung Phosphodiesterase (B) [1] | Mouse Skin Phosphodiesterase (A) [3] | SMILES | MAP 28th hour ([2]; 100 mg/kg by gavage) | other results
Active | Active | Cc1nc(C)n2c(=O)[nH]ncc12 [6,8-Dimethyl-imidazo[1,5-d]-as-triazin-4(3H)-one] |  | MAP 28th hour ([2]; 50 mg/kg by gavage): 70 mm Hg
 | Active | Cc1nc(C)n2c(=S)[nH]ncc12 [6,8-Dimethyl-imidazo[1,5-d]-as-triazine-4-(3H)-thione] | 93 mm Hg | 
 | Active | Cc1nc(Cc2ccccc2)n2c(=O)[nH]ncc12 [6-Benzyl-8-methyl-imidazo[1,5-d]-as-triazin-4(3H)-one] |  | 
Active | Active | Cc1nc(Cc2ccccc2)n2c(=S)[nH]ncc12 [6-Benzyl-8-methyl-imidazo[1,5-d]-as-triazine-4(3H)-thione] |  | 
 | Active | O=c1[nH]ncc2cnc(Cc3ccccc3)n12 [6-Benzyl-imidazo[1,5-d]-as-triazin-4(3H)-one] |  | 
 |  | COCc1ncc2cn[nH]c(=S)n12 [6-Methoxymethyl-imidazo[1,5-d]-as-triazine-4-(3H)-thione] | 100 mm Hg | 
 |  | Cc1ncc2cn[nH]c(=O)n12 [6-Methyl-imidazo[1,5-d]-as-triazin-4(3H)-one] | 120 mm Hg | 
 | Active | O=c1[nH]ncc2cnc(-c3ccccc3)n12 [6-Phenyl-imidazo[1,5-d]-as-triazin-4(3H)-one] | 117 mm Hg | 
 | Active | CCCc1ncc2cn[nH]c(=O)n12 [6-n-Propyl-imidazo[1,5-d]-as-triazin-4(3H)-one] |  | 
Active | Active | CCCc1ncc2cn[nH]c(=S)n12 [6-n-Propyl-imidazo[1,5-d]-as-triazine-4(3H)-thione] | 136 mm Hg | 
 | Active | CCCOc1ccccc1-c1ncc2cn[nH]c(=O)n12 [6-o-Propoxyphenyl-imidazo[1,5-d]-as-triazine-4(3H)-one] |  | 
Active | Active | Cc1nc(C(C)(C)C)n2c(=O)[nH]ncc12 [6-tert-Butyl-8-methyl-imidazo[1,5-d]-as-triazin-4(3H)-one] | 133 mm Hg | 
 | Active | CC(C)(C)c1ncc2cn[nH]c(=O)n12 [6-tert-Butyl-imidazo[1,5-d]-as-triazin-4(3H)-one] | 135 mm Hg | 
Active | Active | O=c1[nH]ncc2c(Br)nc(-c3ccccc3)n12 [8-Bromo-6-phenyl-imidazo[1,5-d]-as-triazin-4(3H)-one] |  | 
Active | Active | O=c1[nH]ncc2c(Cl)nc(-c3ccccc3)n12 [8-Chloro-6-phenyl-imidazo[1,5-d]-as-triazin-4(3H)-one] |  | 
 |  | CCCc1nc(C)c2cn[nH]c(=O)n12 [8-Methyl-6-n-propyl-imidazo[1,5-d]-as-triazin-4(3H)-one] |  | MAP 28th hour ([2]; 50 mg/kg by gavage): 127 mm Hg
Active | Active | CCCc1nc(C)c2cn[nH]c(=S)n12 [8-Methyl-6-n-propyl-imidazolo[1,5-d]-as-triazine-4(3H)-thione] |  | 
Active | Active | Cc1nc(-c2ccccc2)n2c(=O)[nH]ncc12 [8-Methyl-6-phenyl-imidazo[1,5-d]-as-triazin-4(3H)-one] | 133 mm Hg | 
 | Active | Cc1nc(-c2ccccc2)n2c(=S)[nH]ncc12 [8-Methyl-6-phenyl-imidazo[1,5-d]-as-triazine-4-(3H)-thione] | 128 mm Hg | 
 | Active | Cc1ncn2c(=O)[nH]ncc12 [8-Methyl-imidazo[1,5-d]-as-triazin-4(3H)-one] | 91 mm Hg | 
 | Active | Cc1ncn2c(=S)[nH]ncc12 [8-Methyl-imidazo[1,5-d]-as-triazine-4-(3H)-thione] |  | MAP 28th hour ([2]; 25 mg/kg by gavage): 130 mm Hg
 |  | CC(C)c1nc(Cl)c2cn[nH]c(=S)n12 [8-chloro-6-isopropyl-imidazo[1,5-d]-as-triazine-4(3H)-thione] |  | dispersion after storage [4]: remains dispersed
 |  | S=c1[nH]ncc2cncn12 [Imidazo[1,5-d]-as-triazin-4(3H)-thione, Imidazo[1,5-d]-as-triazine-4(3H)-thione] | 123 mm Hg | 
